Laboratory results: PMC11881918, “Kir7.1 is the physiological target for hormones and steroids that regulate uteroplacental function” (Science Advances, 2025)

How the values were obtained:
Type in all cases: cell-based
Kir7.1 (hKir7.1) [1] = molecular target: T1, Kir7.1 (hKir7.1) (Homo sapiens, UniProt O60928); experiment: whole-cell patch clamp, inhibition of P4-activated current; design: gene KCNJ13; recombinant hKir7.1 in HEK293 cells
T1 sequence (O60928 1-360): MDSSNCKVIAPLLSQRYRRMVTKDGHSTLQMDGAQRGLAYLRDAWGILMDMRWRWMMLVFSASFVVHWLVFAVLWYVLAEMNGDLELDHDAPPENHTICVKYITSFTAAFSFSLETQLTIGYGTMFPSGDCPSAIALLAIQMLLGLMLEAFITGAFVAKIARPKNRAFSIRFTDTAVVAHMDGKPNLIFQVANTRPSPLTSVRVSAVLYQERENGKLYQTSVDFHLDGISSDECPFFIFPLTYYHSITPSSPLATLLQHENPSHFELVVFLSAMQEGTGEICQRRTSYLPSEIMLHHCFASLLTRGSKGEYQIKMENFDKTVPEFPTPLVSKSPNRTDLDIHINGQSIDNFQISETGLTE

Kir7.1 (hKir7.1) [2] = molecular target: T1, Kir7.1 (hKir7.1); experiment: whole-cell patch clamp, dose response of current potentiation at -80 mV; design: gene KCNJ13; recombinant hKir7.1 (pIRES2-eGFP-hKir7.1) in HEK293 cells and HUtSMCs
murine Kir7.1 = molecular target: T2, murine Kir7.1 (Mus musculus, UniProt P86046); experiment: whole-cell patch clamp, dose response of current potentiation
T2 construct: gene Kcnj13; recombinant murine Kir7.1 in HEK293 cells
T2 sequence (P86046 1-360): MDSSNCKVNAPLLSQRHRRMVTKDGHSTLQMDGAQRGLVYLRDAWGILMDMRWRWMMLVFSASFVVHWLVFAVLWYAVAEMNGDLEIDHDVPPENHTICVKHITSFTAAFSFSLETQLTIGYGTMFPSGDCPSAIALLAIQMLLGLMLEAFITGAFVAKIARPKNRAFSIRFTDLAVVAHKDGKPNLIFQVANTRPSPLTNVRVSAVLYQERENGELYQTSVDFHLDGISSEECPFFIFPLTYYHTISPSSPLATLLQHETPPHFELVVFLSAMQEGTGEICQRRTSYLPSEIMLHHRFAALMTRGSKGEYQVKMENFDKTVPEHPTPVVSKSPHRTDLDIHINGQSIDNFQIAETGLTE

C[C@]12CC[C@@H]3c4ccc(O)cc4CC[C@H]3[C@@H]1CC[C@@H]2O [E2, 17β-estradiol]
IC50 (Kir7.1 (hKir7.1) [1]): 8.6 µM

CC(=O)[C@H]1CC[C@H]2[C@@H]3CCC4=CC(=O)CC[C@]4(C)[C@H]3CC[C@]12C [P4, progesterone]
EC50 (Kir7.1 (hKir7.1) [2]): ~ 9.4 and 11.5 μM | EC50 (murine Kir7.1): ~ 9.4 and 11.5 μM
